Assay results published in patent publication US10314823B2, “Substituted 1,2-dihydro-3H-pyrrolo[1,2-c]imidazol-3-one antibacterial compounds” (IDORSIA PHARMACEUTICALS LTD, priority 2015, dated 2019).
≈ marks a conversion by molar mass, not a printed value.

Key:
Assay in all cases: Bacterial growth minimal inhibitory concentration (CLSI broth microdilution)
Type in all cases: cell-based
E. coli ATCC25922 = conditions: Escherichia coli, ATCC25922; quinolone-sensitive strain; cation-adjusted Mueller-Hinton Broth
Protocol: (§1) Minimal Inhibitory Concentrations (MICs; mg/L) were determined in cation-adjusted Mueller-Hinton Broth by a microdilution method following the description given in “Methods for Dilution Antimicrobial Susceptibility Tests for Bacteria that Grow Aerobically”, Approved standard, 7th ed., Clinical and Laboratory Standards Institute (CLSI) Document M7-A7, Wayne, Pa., USA (2006).
(§2) All Reference Example compounds were tested against several Gram-negative bacteria. K. pneumoniae A-651 is a multiply resistant strain (in particular quinolone-resistant), while E. coli ATCC25922 and P. aeruginosa ATCC27853 are quinolone-sensitive strains. The corresponding antibacterial test results are given in Table 1 hereafter (MICs in mg/L).

K. pneumoniae A-651 = conditions: Klebsiella pneumoniae, A651; multiply resistant strain (in particular quinolone-resistant); cation-adjusted Mueller-Hinton Broth
Protocol: as §1, §2

P. aeruginosa ATCC27853 = conditions: Pseudomonas aeruginosa, ATCC27853; quinolone-sensitive strain; cation-adjusted Mueller-Hinton Broth
Protocol: as §1, §2

SMILES	MIC (E. coli ATCC25922)	MIC (K. pneumoniae A-651)	MIC (P. aeruginosa ATCC27853)
CN1CC(F)(C#CC#Cc2cc3n(c2)C(=O)N(CC[C@](C)(C(=O)NO)S(C)(=O)=O)C3)C1 [Example 33, (2R)-4-(6-((3-fluoro-1-methylazetidin-3-yl)buta-1,3-diyn-1-yl)-3-oxo-1H-pyrrolo[1,2-c]imidazol-2(3H)-yl)-N-hydroxy-2-methyl-2-(methylsulfonyl)butanamide]	0.25 µg/mL (≈ 0.555 µM)	0.25 µg/mL (≈ 0.555 µM)	2 µg/mL (≈ 4.44 µM)
CN1CCC(C#CC#Cc2cc3n(c2)C(=O)N(CC[C@](C)(C(=O)NO)S(C)(=O)=O)C3)CC1 [Example 34, (2R)—N-hydroxy-2-methyl-4-(6-((1-methylpiperidin-4-yl)buta-1,3-diyn-1-yl)-3-oxo-1H-pyrrolo[1,2-c]imidazol-2(3H)-yl)-2-(methylsulfonyl)butanamide]	4 µg/mL (≈ 8.69 µM)	4 µg/mL (≈ 8.69 µM)	1 µg/mL (≈ 2.17 µM)
C[C@@](CCN1Cc2cc(C#CC#CC3CCN(C4COC4)CC3)cn2C1=O)(C(=O)NO)S(C)(=O)=O [Example 35, (2R)—N-hydroxy-2-methyl-2-(methylsulfonyl)-4-(6-((1-(oxetan-3-yl)piperidin-4-yl)buta-1,3-diyn-1-yl)-3-oxo-1H-pyrrolo[1,2-c]imidazol-2(3H)-yl)butanamide]	0.5 µg/mL (≈ 0.995 µM)	1 µg/mL (≈ 1.99 µM)	2 µg/mL (≈ 3.98 µM)
C[C@@](CCN1Cc2cc(C#Cc3ccc(CN4CC[C@H](O)C(F)(F)C4)cc3)cn2C1=O)(C(=O)NO)S(C)(=O)=O [Example 37, (2R)-4-(6-((4-(((S)-3,3-difluoro-4-hydroxypiperidin-1-yl)methyl)phenyl)ethynyl)-3-oxo-1H-pyrrolo[1,2-c]imidazol-2(3H)-yl)-N-hydroxy-2-methyl-2-(methylsulfonyl)butanamide]	0.5 µg/mL (≈ 0.886 µM)	0.5 µg/mL (≈ 0.886 µM)	2 µg/mL (≈ 3.54 µM)
CNC1(C#CC#Cc2cc3n(c2)C(=O)N(CC[C@](C)(C(=O)NO)S(C)(=O)=O)C3)CC1 [Example 38, (2R)—N-hydroxy-2-methyl-4-(6-((1-(methylamino)cyclopropyl)buta-1,3-diyn-1-yl)-3-oxo-1H-pyrrolo[1,2-c]imidazol-2(3H)-yl)-2-(methylsulfonyl)butanamide]	0.063 µg/mL (≈ 0.146 µM)	0.25 µg/mL (≈ 0.578 µM)	0.5 µg/mL (≈ 1.16 µM)
CN1CC(OC(=O)NCC#CC#Cc2cc3n(c2)C(=O)N(CC[C@](C)(C(=O)NO)S(C)(=O)=O)C3)C1 [Example 39, 1-methylazetidin-3-yl (3R)-(5-(2-(4-(hydroxyamino)-3-methyl-3-(methylsulfonyl)-4-oxobutyl)-3-oxo-2,3-dihydro-1H-pyrrolo[1,2-c]imidazol-6-yl)penta-2,4-diyn-1-yl)carbamate]	8 µg/mL (≈ 15.8 µM)	4 µg/mL (≈ 7.91 µM)	4 µg/mL (≈ 7.91 µM)
C[C@@](CCN1Cc2cc(C#CC#CCN3CCC(O)CC3)cn2C1=O)(C(=O)NO)S(C)(=O)=O [Example 40, (2R)—N-hydroxy-4-(6-(5-(4-hydroxypiperidin-1-yl)penta-1,3-diyn-1-yl)-3-oxo-1H-pyrrolo[1,2-c]imidazol-2(3H)-yl)-2-methyl-2-(methylsulfonyl)butanamide]	2 µg/mL (≈ 4.2 µM)	2 µg/mL (≈ 4.2 µM)	2 µg/mL (≈ 4.2 µM)
C[C@@](CCN1Cc2cc(C#CC#CC3CN(CCO)C3)cn2C1=O)(C(=O)NO)S(C)(=O)=O [Example 41, (2R)—N-hydroxy-4-(6-((1-(2-hydroxyethyl)azetidin-3-yl)buta-1,3-diyn-1-yl)-3-oxo-1H-pyrrolo[1,2-c]imidazol-2(3H)-yl)-2-methyl-2-(methylsulfonyl)butanamide]	0.5 µg/mL (≈ 1.08 µM)	0.5 µg/mL (≈ 1.08 µM)	0.5 µg/mL (≈ 1.08 µM)
C[C@@](CCN1Cc2cc(C#Cc3ccc(CN4CC(O)C4)cc3)cn2C1=O)(C(=O)NO)S(C)(=O)=O [Example 43, (2R)—N-hydroxy-4-(6-((4-((3-hydroxyazetidin-1-yl)methyl)phenyl)ethynyl)-3-oxo-1H-pyrrolo[1,2-c]imidazol-2(3H)-yl)-2-methyl-2-(methylsulfonyl)butanamide]	0.5 µg/mL (≈ 0.999 µM)	2 µg/mL (≈ 4 µM)	0.5 µg/mL (≈ 0.999 µM)
CN(C)C[C@@H]1C[C@H]1C#CC#Cc1cc2n(c1)C(=O)N(CC[C@](C)(C(=O)NO)S(C)(=O)=O)C2 [Example 44, (2R)-4-(6-(((1R,2R)-2-((dimethylamino)methyl)cyclopropyl)buta-1,3-diyn-1-yl)-3-oxo-1H-pyrrolo[1,2-c]imidazol-2(3H)-yl)-N-hydroxy-2-methyl-2-(methylsulfonyl)butanamide]	2 µg/mL (≈ 4.34 µM)	2 µg/mL (≈ 4.34 µM)	4 µg/mL (≈ 8.69 µM)
C[C@@](CCN1Cc2cc(C#CC#CC3(O)CCN(C4COC4)CC3)cn2C1=O)(C(=O)NO)S(C)(=O)=O [Example 45, (2R)—N-hydroxy-4-(6-((4-hydroxy-1-(oxetan-3-yl)piperidin-4-yl)buta-1,3-diyn-1-yl)-3-oxo-1H-pyrrolo[1,2-c]imidazol-2(3H)-yl)-2-methyl-2-(methylsulfonyl)butanamide]	8 µg/mL (≈ 15.4 µM)	8 µg/mL (≈ 15.4 µM)	> 8 µg/mL
CN1CCC(F)(C#CC#Cc2cc3n(c2)C(=O)N(CC[C@](C)(C(=O)NO)S(C)(=O)=O)C3)CC1 [Example 46, (2R)-4-(6-((4-fluoro-1-methylpiperidin-4-yl)buta-1,3-diyn-1-yl)-3-oxo-1H-pyrrolo[1,2-c]imidazol-2(3H)-yl)-N-hydroxy-2-methyl-2-(methylsulfonyl)butanamide]	0.5 µg/mL (≈ 1.04 µM)	1 µg/mL (≈ 2.09 µM)	1 µg/mL (≈ 2.09 µM)
C[C@@](CCN1Cc2cc(C#CC#CC3(F)CCN(C4COC4)CC3)cn2C1=O)(C(=O)NO)S(C)(=O)=O [Example 47, (2R)-4-(6-((4-fluoro-1-(oxetan-3-yl)piperidin-4-yl)buta-1,3-diyn-1-yl)-3-oxo-1H-pyrrolo[1,2-c]imidazol-2(3H)-yl)-N-hydroxy-2-methyl-2-(methylsulfonyl)butanamide]	0.5 µg/mL (≈ 0.96 µM)	2 µg/mL (≈ 3.84 µM)	2 µg/mL (≈ 3.84 µM)
CN1CCC(O)(C#CC#Cc2cc3n(c2)C(=O)N(CC[C@](C)(C(=O)NO)S(C)(=O)=O)C3)CC1 [Example 48, (2R)—N-hydroxy-4-(6-((4-hydroxy-1-methylpiperidin-4-yl)buta-1,3-diyn-1-yl)-3-oxo-1H-pyrrolo[1,2-c]imidazol-2(3H)-yl)-2-methyl-2-(methylsulfonyl)butanamide]	> 8 µg/mL	> 8 µg/mL	4 µg/mL (≈ 8.39 µM)
C[C@@](CCN1Cc2cc(C#Cc3ccc(CN4CC(F)C4)cc3)cn2C1=O)(C(=O)NO)S(C)(=O)=O [Example 49, (2R)-4-(6-((4-((3-fluoroazetidin-1-yl)methyl)phenyl)ethynyl)-3-oxo-1H-pyrrolo[1,2-c]imidazol-2(3H)-yl)-N-hydroxy-2-methyl-2-(methylsulfonyl)butanamide]	< 0.063 µg/mL	0.125 µg/mL (≈ 0.249 µM)	1 µg/mL (≈ 1.99 µM)
CN1CCN(C(=O)OCC#CC#Cc2cc3n(c2)C(=O)N(CC[C@](C)(C(=O)NO)S(C)(=O)=O)C3)CC1 [Example 50, (3R)-5-(2-(4-(hydroxyamino)-3-methyl-3-(methylsulfonyl)-4-oxobutyl)-3-oxo-2,3-dihydro-1H-pyrrolo[1,2-c]imidazol-6-yl)penta-2,4-diyn-1-yl 4-methylpiperazine-1-carboxylate]	1 µg/mL (≈ 1.92 µM)	1 µg/mL (≈ 1.92 µM)	2 µg/mL (≈ 3.85 µM)
C[C@@](CCN1Cc2cc(C#CC#CC3CN(C[C@@H](O)CO)C3)cn2C1=O)(C(=O)NO)S(C)(=O)=O [Example 51, (2R)-4-(6-((1-((R)-2,3-dihydroxypropyl)azetidin-3-yl)buta-1,3-diyn-1-yl)-3-oxo-1H-pyrrolo[1,2-c]imidazol-2(3H)-yl)-N-hydroxy-2-methyl-2-(methylsulfonyl)butanamide]	1 µg/mL (≈ 2.03 µM)	4 µg/mL (≈ 8.12 µM)	1 µg/mL (≈ 2.03 µM)
[2H]C([2H])N1CC(C#CC#Cc2cc3n(c2)C(=O)N(CC[C@](C)(C(=O)NO)S(C)(=O)=O)C3)C1 [Example 52, (2R)—N-hydroxy-2-methyl-4-(6-((1-(methyl-d2)azetidin-3-yl)buta-1,3-diyn-1-yl)-3-oxo-1H-pyrrolo[1,2-c]imidazol-2(3H)-yl)-2-(methylsulfonyl)butanamide]	0.5 µg/mL (≈ 1.15 µM)	0.5 µg/mL (≈ 1.15 µM)	0.5 µg/mL (≈ 1.15 µM)
C[C@@](CCN1Cc2cc(C#CC#C[C@@H]3C[C@H](F)CN3)cn2C1=O)(C(=O)NO)S(C)(=O)=O.Cl [Example 53, (2R)-4-(6-(((2S,4S)-4-fluoropyrrolidin-2-yl)buta-1,3-diyn-1-yl)-3-oxo-1H-pyrrolo[1,2-c]imidazol-2(3H)-yl)-N-hydroxy-2-methyl-2-(methylsulfonyl)butanamide hydrochloride]	4 µg/mL	4 µg/mL	4 µg/mL
CCN1CC(C#CC#Cc2cc3n(c2)C(=O)N(CC[C@](C)(C(=O)NO)S(C)(=O)=O)C3)C1 [Example 54, (2R)-4-(6-((1-ethylazetidin-3-yl)buta-1,3-diyn-1-yl)-3-oxo-1H-pyrrolo[1,2-c]imidazol-2(3H)-yl)-N-hydroxy-2-methyl-2-(methylsulfonyl)butanamide]	0.25 µg/mL (≈ 0.56 µM)	0.5 µg/mL (≈ 1.12 µM)	0.5 µg/mL (≈ 1.12 µM)
C[C@@](CCN1Cc2cc(C#CC#CC3CN(CC4CC4)C3)cn2C1=O)(C(=O)NO)S(C)(=O)=O [Example 55, (2R)-4-(6-((1-(cyclopropylmethyl)azetidin-3-yl)buta-1,3-diyn-1-yl)-3-oxo-1H-pyrrolo[1,2-c]imidazol-2(3H)-yl)-N-hydroxy-2-methyl-2-(methylsulfonyl)butanamide]	0.125 µg/mL (≈ 0.265 µM)	0.25 µg/mL (≈ 0.529 µM)	1 µg/mL (≈ 2.12 µM)
